In patent US12728119B2, “Pharmaceutical composition for preventing or treating cancer comprising 3-ketoacyl CoA thiolase inhibitor and carnitine acylcarnitine carrier inhibitor” (NATIONAL CANCER CENTER, priority 2020, dated 2026):
Values joined by “and” are separate entries in the source; they are usually repeats but may differ in a detail not shown here. Identical values can stand only once.

Key:
Test in all cases: SRB analysis 2
Assay type in all cases: cell-based
[1] = system: SU.86.86 pancreatic cancer cells; conditions: 48 hours
Experimental: (§1) The SRB assay was performed as follows: each cell line (100 μl) was seeded into 96-well microtiter plates at densities ranging from 5,000 to 20,000 cells/well depending on the doubling time of each cell line. After cell seeding, microtiter plates were incubated for 24 h before addition of experimental drug. Drugs were prepared at the indicated concentrations and 100 μl was added to each well; The plates were then incubated in a CO2 incubator. Then, cold TCA was added to terminate the assay. Cells were fixed in situ by gentle addition of 50 μl of cold 50% (w/v) TCA (final concentration: 10% TCA) and incubated at 4° C. for 60 min. The supernatant was discarded and the plate was washed 5 times with tap water and then air dried. A solution (100 μl) of 0.4% (w/v) SRB (Sulforhodamine B) in 1% acetic acid was added to each well, and the plate was left at room temperature for 10 minutes. After staining, the plates were air dried after washing 5 times with 1% acetic acid to remove unbound dye. The bound dye was then solubilized with 10 mM trizma base and the absorbance was recorded at 515 nm using an automated plate reader.

[2] = system: BxPC-3 pancreatic cancer cells; conditions: 48 hours
Experimental: as §1

[3] = system: SNU-324 pancreatic cancer cells; conditions: SNU324, 48 hours
Experimental: as §1

[4] = system: SNU-213 pancreatic cancer cells; conditions: SNU213, 48 hours
Experimental: as §1

[5] = system: AsPC-1 pancreatic cancer cells; conditions: 48 hours
Experimental: as §1

[6] = system: SW1990 pancreatic cancer cells; conditions: 48 hours
Experimental: as §1

[7] = system: Panc-1 pancreatic cancer cells; conditions: 48 hours
Experimental: as §1

[8] = system: MIA PaCa2 pancreatic cancer cells; conditions: MIA PaCa-2, 48 hours
Experimental: as §1

With Cc1c(OCC(F)(F)F)ccnc1C[S+]([O-])c1nc2ccccc2[nH]1 (centres unmarked) [KN511, lansoprazole] as the compound, how does the “degree of cell growth based on the control (100%)” value (“degree … (100%)” below) ([1]; KN511 50 μM) read?
The value was 44.93% and 31.47%.

What about the “degree … (100%)” value ([2]; KN511 50 μM) of the same compound?
Its value is 30.51% and 41.39%.

And the “degree … (100%)” value ([2]; KN511 100 μM)?
The value was −4.87% and −1.66%.

What about the “degree … (100%)” value ([3]; KN511 50 μM) of the same compound?
Its value is 16.15% and 17.09%.

What about the “degree … (100%)” value ([3]; KN511 100 μM) of the same compound?
The value was 4.93% and 8.06%.

And the “degree … (100%)” value ([4]; KN511 50 μM)?
Its value is 46.12% and 49.55%.

And the “degree … (100%)” value ([5]; KN511 50 μM)?
The value was 44.46% and 38.02%.

What about the “degree … (100%)” value ([5]; KN511 100 μM) of the same compound?
Its value is 20.33% and 14.98%.

What about the “degree … (100%)” value ([6]; KN511 50 μM) of the same compound?
The value was 2.62% and 7.49%.

What about the “degree … (100%)” value ([6]; KN511 100 μM) of the same compound?
Its value is −25.25%.

And the “degree … (100%)” value ([7]; KN511 50 μM)?
The value was 65.77% and 39.30%.

And the “degree … (100%)” value ([8]; KN511 50 μM)?
The value was 72.22% and 68.24%.

And the “degree … (100%)” value ([8]; KN511 100 μM)?
The value was 24.61% and 16.12%.

What does the source list for COc1ccnc(C[S+]([O-])c2nc3ccc(OC(F)F)cc3[nH]2)c1OC (centres unmarked) [KN512, pantoprazole]?
degree of cell growth based on the control (100%) ([1]; KN512 100 μM): 59.26% and 70.59%; degree of cell growth based on the control (100%) ([1]; KN512 200 μM): 19.69% and 26.47%; degree of cell growth based on the control (100%) ([2]; KN512 100 μM): 34.14% and 49.52%; degree of cell growth based on the control (100%) ([2]; KN512 200 μM): −10.63% and −6.75%; degree of cell growth based on the control (100%) ([3]; KN512 100 μM): 61.20% and 74.13%; degree of cell growth based on the control (100%) ([3]; KN512 200 μM): 23.82% and 21.77%; degree of cell growth based on the control (100%) ([4]; KN512 100 μM): 66.09% and 59.49%; degree of cell growth based on the control (100%) ([4]; KN512 200 μM): 36.60% and 51.18%; degree of cell growth based on the control (100%) ([5]; KN512 100 μM): 64.75% and 71.27%; degree of cell growth based on the control (100%) ([5]; KN512 200 μM): 23.37% and 25.43%; degree of cell growth based on the control (100%) ([6]; KN512 100 μM): 70.30% and 73.00%; degree of cell growth based on the control (100%) ([6]; KN512 200 μM): 25.58% and 41.93%; degree of cell growth based on the control (100%) ([7]; KN512 100 μM): 54.90% and 57.01%; degree of cell growth based on the control (100%) ([7]; KN512 200 μM): 6.03% and 12.81%; degree of cell growth based on the control (100%) ([8]; KN512 100 μM): 62.60% and 66.74%; degree of cell growth based on the control (100%) ([8]; KN512 200 μM): 5.82% and 1.98%
